Source: patent US7238720B2, “Pharmaceutical use of N-carbamoylazole derivatives” (Eisai R & D Management Co. Ltd., priority 2001, dated 2007)

Columns and labels:
[1] = tested on: male C57BL/6N mice; assay: Glucose-tolerance improving effects in normal mice, Experiments 1 and 2 (compound given orally mixed with glucose); format: in vivo; settings: for Blood Glucose, At Indicated Times (min.) After Oral Administration: mean ± standard error
Method: (§1) Test for Identifying Glucose-Tolerance Improving Effects
(§2) Effects on Glucose-Tolerance Ability of Normal Mice
(§3) Animals: Five or six male C57BL/6N mice per group (purchased from Charles River Japan, Inc.).
Compounds to be tested were suspended in a 0.5% aqueous solution of methylcellulose and mixed with an equal volume of a glucose solution, and administered orally at a volume of 10 ml/kg at doses indicated in Tables below. Vehicle control groups received orally a mixture of a 0.5% aqueous solution of methylcellulose and an equal volume of a glucose solution at a volume of 10 ml/kg. Glucose was given at a dose of 2 g/kg.
The blood was drawn from the tail vein immediately before and at 30, 60, and 120 minutes after the administration of mixed solutions of the compounds to be tested and glucose, and subjected to the measurement of the blood glucose value.
(§4) The tail vein of the mice was injured, without anesthesia, with a razor to cause slight bleeding. Ten microliters of blood was collected, and mixed immediately with […] of 0.6 M perchloric acid. The glucose in supernatants obtained by centrifugation (1500 g, 10 min. 4° C., in a cooled centrifuge GS-6KR from Beckman Ltd.) was determined employing a Glucose CII Test Wako kit (Wako Pure Chemical Industries, Ltd.).
(§5) The results are expressed by mean value±standard error.

[2] = target: T1, DPP-IV, obtained from porcine kidneys (Sus scrofa, UniProt P22411); assay: Measurement of DPPIV inhibiting effects (Gly-Pro-p-nitroanilide, absorbance at 405 nm); format: biochemical; settings: porcine kidney DPP-IV 10 mU/mL, 20 min preincubation, Gly-Pro-p-nitroanilide 0.33 mM, pH 7.4
T1 construct: DPP-IV, obtained from porcine kidneys; from tissue; host or cells: porcine kidney
T1 sequence (P22411 whole entry): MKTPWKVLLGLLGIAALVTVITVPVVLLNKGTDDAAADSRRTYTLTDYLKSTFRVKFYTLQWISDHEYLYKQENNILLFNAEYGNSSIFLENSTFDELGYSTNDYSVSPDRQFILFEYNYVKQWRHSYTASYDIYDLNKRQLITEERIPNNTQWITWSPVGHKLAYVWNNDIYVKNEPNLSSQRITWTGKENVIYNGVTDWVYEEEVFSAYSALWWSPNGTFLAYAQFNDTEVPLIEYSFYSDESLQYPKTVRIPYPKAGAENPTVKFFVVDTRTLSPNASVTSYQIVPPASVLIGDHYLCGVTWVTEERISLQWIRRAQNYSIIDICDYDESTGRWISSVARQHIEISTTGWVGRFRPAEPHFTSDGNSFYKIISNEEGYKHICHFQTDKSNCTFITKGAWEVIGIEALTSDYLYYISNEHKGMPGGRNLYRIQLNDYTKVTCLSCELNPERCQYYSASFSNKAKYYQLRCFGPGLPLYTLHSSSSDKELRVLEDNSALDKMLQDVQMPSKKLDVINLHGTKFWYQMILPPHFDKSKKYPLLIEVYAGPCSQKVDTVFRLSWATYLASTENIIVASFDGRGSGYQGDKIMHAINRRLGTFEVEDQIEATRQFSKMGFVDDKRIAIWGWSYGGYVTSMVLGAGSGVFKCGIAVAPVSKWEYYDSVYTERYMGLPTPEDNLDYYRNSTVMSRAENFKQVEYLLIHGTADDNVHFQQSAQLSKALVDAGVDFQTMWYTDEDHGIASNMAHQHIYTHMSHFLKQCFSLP
Method: Measurement of DPPIV Inhibiting Effects
DPP-IV, obtained from porcine kidneys, was dissolved in a reaction buffer solution (50 mM Tris-HCl, pH 7.4, 0.1% BSA) such that the concentration of DPP-IV was at 10 mU/mL. This solution (110 μl) was placed into test tubes, to which compounds to be tested were further added at a quantity of 15 μl and incubated at room temperature for 20 minutes. Twenty-five microliters of a solution in which Gly-Pro-p-nitroanilide was dissolved at 2 mM was added (final concentration, 0.33 mM) to start the enzymatic reaction. The reaction time was 20 minutes. The reaction was stopped by the addition of 25 μl of 1 N phosphoric acid.

[3] = tested on: male C57BL/6N mice; assay: Glucose-tolerance improving effects in normal mice, Experiment 3 (compound given orally 30 minutes before glucose); format: in vivo; settings: for Blood Glucose, At Indicated Times After Glucose-Solution Administration (min.): 1 mg/kg oral 30 min before glucose 2 g/kg, mean ± standard error
Method: as §1, §2, §3
The suspension of the compound to be tested and 0.5% methylcellulose solution which was the vehicle control group were administered orally at a volume of 10 ml/kg, and at 30 minutes after administration, a glucose solution was administered orally at a volume of 10 ml/kg. Glucose was given at a dose of 2 g/kg.
The blood was drawn from the tail vein immediately before the administration of the compound to be tested, and immediately before and at 30, 60, and 120 minutes after the administration of the glucose solution, and subjected to the measurement of the blood glucose value.
as §4, §5

Molecule: CN(C)C(=O)n1cnc(S(=O)(=O)[C@@H]2C[C@@H]3CC[C@H]2C3)n1 (relative stereo) [Example 13, 3-(Endo-norbornan-2-yl)sulfonyl-1-dimethylcarbamoyl-1H-1,2,4-triazole]
- Blood Glucose, At Indicated Times (min.) After Oral Administration ([1]; Experiment 2, 3 mg/kg oral with glucose 2 g/kg, 0 min (immediately before administration)): 73.9 ± 3.0 mg/dL
- Blood Glucose, At Indicated Times (min.) After Oral Administration ([1]; Experiment 2, 3 mg/kg oral with glucose 2 g/kg, 30 min): 177.7 ± 6.3 mg/dL
- Blood Glucose, At Indicated Times (min.) After Oral Administration ([1]; Experiment 2, 3 mg/kg oral with glucose 2 g/kg, 60 min): 139.7 ± 6.7 mg/dL
- Blood Glucose, At Indicated Times (min.) After Oral Administration ([1]; Experiment 2, 3 mg/kg oral with glucose 2 g/kg, 120 min): 92.5 ± 2.4 mg/dL
- Blood Glucose, At Indicated Times (min.) After Oral Administration ([1]; Experiment 2, 10 mg/kg oral with glucose 2 g/kg, 0 min (immediately before administration)): 73.3 ± 2.8 mg/dL
- Blood Glucose, At Indicated Times (min.) After Oral Administration ([1]; Experiment 2, 10 mg/kg oral with glucose 2 g/kg, 30 min): 159.9 ± 9.9 mg/dL
- Blood Glucose, At Indicated Times (min.) After Oral Administration ([1]; Experiment 2, 10 mg/kg oral with glucose 2 g/kg, 60 min): 129.3 ± 9.1 mg/dL
- Blood Glucose, At Indicated Times (min.) After Oral Administration ([1]; Experiment 2, 10 mg/kg oral with glucose 2 g/kg, 120 min): 90.6 ± 3.2 mg/dL
- Blood Glucose, At Indicated Times (min.) After Oral Administration ([1]; Experiment 2, 30 mg/kg oral with glucose 2 g/kg, 0 min (immediately before administration)): 70.4 ± 4.0 mg/dL
- Blood Glucose, At Indicated Times (min.) After Oral Administration ([1]; Experiment 2, 30 mg/kg oral with glucose 2 g/kg, 30 min): 148.7 ± 5.1 mg/dL
- Blood Glucose, At Indicated Times (min.) After Oral Administration ([1]; Experiment 2, 30 mg/kg oral with glucose 2 g/kg, 60 min): 127.3 ± 5.9 mg/dL
- Blood Glucose, At Indicated Times (min.) After Oral Administration ([1]; Experiment 2, 30 mg/kg oral with glucose 2 g/kg, 120 min): 93.7 ± 2.3 mg/dL
- Blood Glucose, At Indicated Times (min.) After Oral Administration ([1]; Experiment 2, 100 mg/kg oral with glucose 2 g/kg, 0 min (immediately before administration)): 72.0 ± 2.1 mg/dL
- Blood Glucose, At Indicated Times (min.) After Oral Administration ([1]; Experiment 2, 100 mg/kg oral with glucose 2 g/kg, 30 min): 147.1 ± 16.2 mg/dL
- Blood Glucose, At Indicated Times (min.) After Oral Administration ([1]; Experiment 2, 100 mg/kg oral with glucose 2 g/kg, 60 min): 133.7 ± 8.8 mg/dL
- Blood Glucose, At Indicated Times (min.) After Oral Administration ([1]; Experiment 2, 100 mg/kg oral with glucose 2 g/kg, 120 min): 106.2 ± 5.4 mg/dL
- effect on glucose-tolerance ability of normal mice ([1]; oral administration, Experiments 1 and 2, result in words): distinct effect
- IC50 [2]: 164 nM

Molecule: CN(C)C(=O)n1cnc(S(=O)(=O)Cc2ccccc2)n1 [Example 2, 3-Benzylsulfonyl-1-dimethylcarbamoyl-1H-1,2,4-triazole]
- Blood Glucose, At Indicated Times (min.) After Oral Administration ([1]; Experiment 1, 30 mg/kg oral with glucose 2 g/kg, 0 min (immediately before administration)): 75.8 ± 1.5 mg/dL
- Blood Glucose, At Indicated Times (min.) After Oral Administration ([1]; Experiment 1, 30 mg/kg oral with glucose 2 g/kg, 30 min): 159.8 ± 5.5 mg/dL
- Blood Glucose, At Indicated Times (min.) After Oral Administration ([1]; Experiment 1, 30 mg/kg oral with glucose 2 g/kg, 60 min): 133.8 ± 4.1 mg/dL
- Blood Glucose, At Indicated Times (min.) After Oral Administration ([1]; Experiment 1, 30 mg/kg oral with glucose 2 g/kg, 120 min): 109.6 ± 3.0 mg/dL
- IC50 [2]: 1390 nM

Molecule: CN(C)C(=O)n1cnc(SC(c2ccc(F)cc2)c2ccc(F)cc2)n1 [Example 8, 3-[Bis(4-fluorophenyl)methyl]thio-1-dimethylcarbamoyl-1H-1,2,4-triazole]
- IC50 [2]: 3360 nM

Molecule: CCN(C)C(=O)n1cnc(S(=O)(=O)[C@@H]2C[C@@H]3CC[C@H]2C3)n1 (relative stereo) [Example 24, 3-(Endo-norbornan-2-yl)sulfonyl-1-(N-methyl-N-ethylcarbamoyl)-1H-1,2,4-triazole]
- IC50 [2]: 21.5 nM

Molecule: CC(C)CN(C)C(=O)n1cnc(S(=O)(=O)[C@@H]2C[C@@H]3CC[C@H]2C3)n1 (relative stereo) [Example 30, 3-(Endo-norbornan-2-yl)sulfonyl-1-(N-methyl-N-isobutylcarbamoyl)-1H-1,2,4-triazole]
- IC50 [2]: 266 nM

Molecule: CCN(C)C(=O)n1cnc(S(=O)(=O)c2c(C)cc(C)cc2C)n1 [Example 36, 3-(2,4,6-Trimethylphenyl)sulfonyl-1-(N-methyl-N-ethylcarbamoyl)-1H-1,2,4-triazole]
- IC50 [2]: 0.347 nM

Molecule: Cc1cc(C)c(S(=O)(=O)c2ncn(C(=O)N(C)C)n2)c(C)c1 [Example 33, 3-(2,4,6-Trimethylphenyl)sulfonyl-1-dimethylcarbamoyl-1H-1,2,4-triazole]
- IC50 [2]: 9.51 nM

Molecule: CN(C)C(=O)n1cnc(S(=O)(=O)c2cc(F)c(C#N)cc2F)n1 [Example 45, 3-(4-Cyano-2,5-difluorophenyl)sulfonyl-1-dimethylcarbamoyl-1H-1,2,4-triazole]
- IC50 [2]: 32.4 nM

Molecule: O=C(N1CCSC1)n1cnc(S(=O)(=O)[C@@H]2C[C@@H]3CC[C@H]2C3)n1 (relative stereo) [Example 25, 3-(Endo-norbornan-2-yl)sulfonyl-1-(1,3-thiazolidin-3-yl)carbonyl-1H-1,2,4-triazole]
- IC50 [2]: 57.4 nM

Molecule: 3-(Endo-norbornan-2-yl)sulfonyl-1-(N-methyl-N-phenylcarbamoyl)-1H-1,2,4-triazole [Example 22]
- IC50 [2]: 2290 nM

Molecule: COCCOc1cccc(C)c1S(=O)(=O)c1ncn(C(=O)N(C)C)n1 [Example 43, 3-[2-(2-Methoxyethyl)oxy-6-methylphenyl]sulfonyl-1-dimethylcarbamoyl-1H-1,2,4-triazole]
- Blood Glucose, At Indicated Times After Glucose-Solution Administration (min.) ([3]; 0 min (immediately before glucose)): 89.8 ± 2.1 mg/dL
- Blood Glucose, At Indicated Times After Glucose-Solution Administration (min.) ([3]; 30 min): 173.8 ± 5.1 mg/dL
- Blood Glucose, At Indicated Times After Glucose-Solution Administration (min.) ([3]; 60 min): 170.8 ± 5.7 mg/dL
- Blood Glucose, At Indicated Times After Glucose-Solution Administration (min.) ([3]; 120 min): 112.1 ± 2.5 mg/dL
- Blood Glucose, At Indicated Times After Glucose-Solution Administration (min.) ([3]; −30 min (immediately before compound administration)): 70.8 ± 1.5 mg/dL
- effect on glucose-tolerance ability of normal mice ([3]; oral administration, result in words): distinct effect
- IC50 [2]: 4.34 nM

Molecule: CN(C)C(=O)n1cnc(S(=O)(=O)Cc2ccc(F)cc2)n1 [Example 4, 3-(4-Fluorobenzyl)sulfonyl-1-dimethylcarbamoyl-1H-1,2,4-triazole]
- IC50 [2]: 657 nM

Molecule: CN(C)C(=O)n1cnc(S(=O)(=O)C2CCOc3ccccc32)n1 (stereo not drawn) [Example 11, 3-(Chroman-4-yl)sulfonyl-1-dimethylcarbamoyl-1H-1,2,4-triazole]
- IC50 [2]: 216 nM

Molecule: CCN(CC)C(=O)n1cnc(S(=O)(=O)c2c(C)cc(C)cc2C)n1 [Example 34, 3-(2,4,6-Trimethylphenyl)sulfonyl-1-diethylcarbamoyl-1H-1,2,4-triazole]
- IC50 [2]: 6630 nM

Molecule: CN(C)C(=O)n1cnc(S(=O)(=O)C2CCCCC2)n1 [Example 15, 3-Cyclohexylsulfonyl-1-dimethylcarbamoyl-1H-1,2,4-triazole]
- IC50 [2]: 311 nM
